Laboratory results from ChEMBL document CHEMBL5223084, “Discovery and Preclinical Characterization of Usmarapride (SUVN-D4010): A Potent, Selective 5-HT4 Receptor Partial Agonist for the Treatment of Cognitive Deficits Associated with Alzheimer's Disease” (J Med Chem, 2021).

Experiments:
[1] = in vitro; conditions: rat
[2] = in vitro; conditions: human
[3] = rat, in vivo, po, 3 mg/kg, 24 h
[4] = Apparent permeability of the compound in human Caco-2 cells at 10 uM; format: ADME, cell-based
[5] = Acid dissociation constant, pKa of the compound; format: physicochemical
[6] = Oral bioavailability in Beagle dog at 1 mg/kg; format: ADME, organism-based, Canis lupus familiaris; conditions: in vivo
[7] = Tmax in Beagle dog at 1 mg/kg, po; format: ADME, organism-based, Canis lupus familiaris; conditions: in vivo
[8] = Solubility of the compound in water; format: physicochemical
[9] = Terminal half life in Beagle dog at 1 mg/kg, iv; format: ADME, organism-based, Canis lupus familiaris; conditions: in vivo, read-out: beta t1/2 (converted)
[10] = Volume of distribution in Beagle dog at 1 mg/kg, iv; format: ADME, organism-based, Canis lupus familiaris; conditions: in vivo
[11] = AUC (0 to 24 hrs) in Beagle dog at 1 mg/kg, po; format: ADME, organism-based, Canis lupus familiaris; set-up: dose 1 mg/kg, route po; conditions: in vivo
[12] = Solubility of the compound in buffer at pH 2 to 7 at 37 degC; format: physicochemical
[13] = Clearance in Beagle dog at 1 mg/kg, iv; format: ADME, organism-based, Canis lupus familiaris; conditions: in vivo
[14] = in vivo; conditions: Wistar, rat, po, 3 mg/kg
[15] = rat, in vivo, po, 3 mg/kg, 24 h; remark: listed apart in the source
[16] = in vivo; conditions: Wistar, rat, po, 3 mg/kg; remark: listed apart in the source
[17] = in vivo; conditions: Wistar, rat, po, 3 mg/kg; remark: listed apart in the source
[18] = in vivo; conditions: Wistar, rat, po, 3 mg/kg; remark: listed apart in the source
[19] = in vivo; conditions: Wistar, rat, iv, 1 mg/kg
[20] = rat, in vivo, po, 3 mg/kg, 24 h; remark: listed apart in the source
[21] = in vivo; conditions: Wistar, rat, brain and plasma, po, 10 mg/kg

Structure (SMILES)	Vdss [3] [L/kg]	metabolised at 0.5 h ([1]; liver microsomes) [%]	metabolised at 0.5 h ([2]; liver microsomes) [%]	half-life at 24 h [14] [h]	AUC [15] [ng·h/mL]	bioavailability at 24 h [16] [%]	AUC at 24 h [17] [ng·h/mL]	Cmax at 24 h [18] [ng/mL]	clearance at 24 h [19] [mL/min/kg]	Kp at 1 h [21]	also measured
CC(C)n1nc(-c2noc(C3CCN(CC4CCOCC4)CC3)n2)c2ccccc21	–	–	–	–	–	–	–	–	–	–	metabolised at 0.5 h ([1]; microsomes): 64.1%; metabolised at 0.5 h ([2]; microsomes): 40.4%
COCCCN1CCC(c2nnc(-c3nn(C(C)C)c4ccccc34)o2)CC1.O=C(O)C(=O)O	8	25.1	26.2	–	–	–	–	–	–	–	Papp at 10 µM [4]: 38 ×10⁻⁶ cm/s; pKa [5]: 8.4; bioavailability [6]: 72%; Tmax [7]: 0.5 h; solubility [8]: 17.1 mg/mL; half-life [9]: 6 h; Vd [10]: 5.1 L/kg; AUC(0-t) [11]: 711 ng·h/mL; solubility [12]: 20 mg/mL; clearance [13]: 18 mL/min/kg
CC(C)n1nc(-c2nnc(C3CCN(CC4CC4)CC3)o2)c2ccccc21	8	83.8	43.6	1.7	394	–	–	–	–	–	–
CC(C)n1nc(-c2nnc(C3CCN(CC4CCC4)CC3)o2)c2ccccc21	4.9	55.1	62.5	2.3	–	2.6	16	14	81	–	–
CC(C)N1CCC(c2nnc(-c3nn(C(C)C)c4ccccc34)o2)CC1	10	35.7	15.3	1.9	133	–	–	91	–	3.6	F [20]: 9%
CC(C)n1c(=O)c(C(=O)NCCCN2CCCCC2)c(O)c2ccsc21 [PRX-03140]	7.6	–	–	1.5	–	2	22	17	62	1.6	–
